In ChEMBL document CHEMBL3507680, “University of Dundee, Gates Library screen for HepG2 cell viability”:

Assay: Human HepG2 cell viability assay in 384 well format
Type: toxicity, cell-based
Design: dose 125 nL, time 70.5 hour; concentration not given beside the values
Settings: HepG2 cells, read-out: Inhibition

SMILES | cytotoxicity at 70.5 h
CSc1nc2ccsc2c(=O)n1CC(=O)NC1CCCC1 | -6.44%
CCc1cc(=O)n(CC(=O)N2CCCC2)c(-c2cccc(F)c2)n1 | 4.18%
CCc1cc(=O)n(CC(=O)N2CCC(C)CC2)c(-c2cccc(F)c2)n1 | -3.1%
CCc1cc(=O)n(CC(=O)NCC2CCCO2)c(-c2cccc(F)c2)n1 (configuration not stated) | 2.39%
CCOC(=O)C1CCN(c2nccc(-n3nc(C)cc3C)n2)CC1 | -3.45%
O=C(c1nn[nH]c1Nc1ccc(Cl)cc1)N1CCCCCC1 | -10.3%
CC(C)N1CCN(C(=O)c2[nH]nnc2Nc2ccccc2F)CC1 | 16.4%
O=C(c1nn[nH]c1Nc1cccc(Cl)c1)N1CCSCC1 | 26.2%
Cc1cc(=O)n(CC(=O)NCC2CCCO2)c(-c2ccccc2)n1 (configuration not stated) | 2.72%
COCCCNC(=O)Cn1c(-c2cccc(Cl)c2)nc(C)cc1=O | 2.43%
CCc1cc(=O)n(CC(=O)N2CCCC2)c(-c2ccccc2)n1 | -5.29%
Cc1nc(N2CCCCC2)ncc1-c1cc(O)nc(N2CCCCC2)n1 | -0.353%
CCC(c1ccccc1)c1nn2c(CN(CC)CC)nnc2s1 (configuration not stated) | -5.77%
Cc1ncc2c(n1)CCCC2NC(=O)c1cnn(Cc2ccccc2)c1 (configuration not stated) | -12.8%
COCC(=O)N1CCC([C@@H]2C[C@H](C(F)(F)F)n3nc(C)cc3N2)CC1 | -3.42%
Cc1nc(C)n(CCC(=O)N2CCc3ncc(Cl)cc3C2)n1 | 6.03%
O=C1CN(C(=O)CCn2c(C(F)(F)F)cc3cccnc32)CCN1 | 4.91%
O=C(c1ccccn1)N1Cc2ccccc2OC2(CCOCC2)C1 | -0.0226%
CCCNC(=O)C1(CC2CC(c3ccccc3OC)=NO2)CCOCC1 (configuration not stated) | 6.7%

SMILES | cytotoxicity at 70.5 h
Nc1cncc(C(=O)N2Cc3ccccc3OC3(CCOCC3)C2)c1 | 7.99%
Cc1nc(N)sc1C(=O)N1Cc2ccccc2OC2(CCOCC2)C1 | 31.2%
CCc1cc(C(=O)N2CCC(c3cc4ncccc4cn3)CC2)on1 | -0.772%
c1cc(-c2nc(C3CCN(Cc4ccsc4)CC3)no2)ccn1 | 36.8%
CCc1onc(C)c1C(=O)N1CCC(c2cc3ncccc3cn2)CC1 | 9.24%
Cc1nc(C2CCCN2C(=O)Cc2ccc(F)cc2)nc(O)c1C (configuration not stated) | 2.83%
O=C(CCn1c(C(F)(F)F)cc2cccnc21)N1CCOCC1 | 0.815%
Cc1csc2nc3n(c(=O)c12)CCN(Cc1ccccn1)CC3 | 2.36%
O=C(CCn1c(C(F)(F)F)cc2cccnc21)N1CCCC1 | -0.515%
COc1ccccc1CNC(Cc1cccs1)c1nc(C)cs1 (configuration not stated) | 3.54%
Cc1nc[nH]c1CN1CCc2nc3scc(C)c3c(=O)n2CC1 | -1.43%
COCC(=O)N1CCn2c(COc3cccnc3)cnc2C1C (configuration not stated) | 6.09%
O=S(=O)(C1CC1)N1C[C@@H]2COC[C@]2(COc2ccccn2)C1 | -18.1%
CS(=O)(=O)N1C[C@H]2CCC[C@@]2(COc2ccccn2)C1 | -16.1%
CCS(=O)(=O)N1CCCC2(COCCN(c3ccccn3)C2)C1 (configuration not stated) | -18.6%
Cn1cc(N2CC3(CCN(Cc4ccccc4)CC3)OCC2=O)cn1 | 52.7%
CC(C)NC(=O)C1CN(Cc2ccc(F)cc2)CC12CCOCC2 (configuration not stated) | -10.5%
Cn1cc(N2CC3(CCN(CC4CC4)CC3)OCC2=O)cn1 | -12.5%
COC[C@@H]1CCC[C@@]12CN(Cc1ccco1)CCO2 | -15.7%

SMILES | cytotoxicity at 70.5 h
Cc1nc(CN2CC3(CCN(c4cnccn4)C3)CC2=O)cs1 (configuration not stated) | -10.3%
COCCN1CC[C@H](OC)[C@@H]1Cc1ccccc1 | -0.421%
CCC(CC)C(=O)N1CCOC2(COCCN(CC(=O)NC)C2)C1 (configuration not stated) | -11.7%
O=C(Cc1ccccn1)N1CCc2ncnc(NC3CCC3)c2CC1 | -9.73%
Cc1noc(C)c1CN1C[C@H](OCc2ccncc2)[C@H]2OCCC[C@H]21 | -13.2%
Cc1cnc(N2CCOCC3(CCN(c4ccccn4)C3)C2)nc1 (configuration not stated) | -9.64%
c1ccc(N2CCC3(COCCN(c4ncccn4)C3)C2)nc1 (configuration not stated) | -10%
Cn1cc(CN2C[C@@H]3COC[C@H](C(=O)Nc4cccnc4)[C@@H]3C2)cn1 | 44.2%
CN(C)C(=O)CN1CCn2cc(Cn3cccn3)nc2C1 | -10.4%
c1ccc(CCN2CCn3cc(Cn4cccn4)nc3C2)cc1 | -10.6%
Cc1ccc(CN2CCc3onc(COc4cccnc4)c3C2)s1 | -26.9%
c1ccc(CO[C@H]2CO[C@@]3(CCCN(Cc4cccnc4)C3)C2)nc1 | -24.8%
COc1ncccc1CN1C[C@@H]2COC[C@]2(COc2ccccn2)C1 | -20.4%
CCOCc1cc(CN2CCn3c(CO)nnc3C2)ccc1OC | 1.27%
COc1ccc(C(C)(C)C)cc1CN1CCn2c(CO)nnc2C1 | 6.88%
Cc1ccc(CN(CCCn2ccnc2)Cc2cc(F)ccc2F)s1 | 20.3%
Cc1ccc(CN(CCCn2ccnc2)Cc2cnc(N(C)C)nc2)s1 | 21.5%
COc1ccc(F)c(CN(CCCn2ccnc2)Cc2ccc(C)s2)c1 | 45.5%
Cc1ccc(CN(CCCn2ccnc2)Cc2ccccc2O)s1 | 3.23%
